From patent US20100035867A1 (priority 2006, published 2010)

Experiments:
[1] = target: T1, guanylyl cyclase type B (GC-B) (Rattus norvegicus, UniProt P16067); assay: CNP-induced cyclic GMP accumulation in RFL-6 fibroblast cells; settings: RFL-6 cells, 1 μM CNP, 50 μM compound
T1 sequence (P16067 17-1047): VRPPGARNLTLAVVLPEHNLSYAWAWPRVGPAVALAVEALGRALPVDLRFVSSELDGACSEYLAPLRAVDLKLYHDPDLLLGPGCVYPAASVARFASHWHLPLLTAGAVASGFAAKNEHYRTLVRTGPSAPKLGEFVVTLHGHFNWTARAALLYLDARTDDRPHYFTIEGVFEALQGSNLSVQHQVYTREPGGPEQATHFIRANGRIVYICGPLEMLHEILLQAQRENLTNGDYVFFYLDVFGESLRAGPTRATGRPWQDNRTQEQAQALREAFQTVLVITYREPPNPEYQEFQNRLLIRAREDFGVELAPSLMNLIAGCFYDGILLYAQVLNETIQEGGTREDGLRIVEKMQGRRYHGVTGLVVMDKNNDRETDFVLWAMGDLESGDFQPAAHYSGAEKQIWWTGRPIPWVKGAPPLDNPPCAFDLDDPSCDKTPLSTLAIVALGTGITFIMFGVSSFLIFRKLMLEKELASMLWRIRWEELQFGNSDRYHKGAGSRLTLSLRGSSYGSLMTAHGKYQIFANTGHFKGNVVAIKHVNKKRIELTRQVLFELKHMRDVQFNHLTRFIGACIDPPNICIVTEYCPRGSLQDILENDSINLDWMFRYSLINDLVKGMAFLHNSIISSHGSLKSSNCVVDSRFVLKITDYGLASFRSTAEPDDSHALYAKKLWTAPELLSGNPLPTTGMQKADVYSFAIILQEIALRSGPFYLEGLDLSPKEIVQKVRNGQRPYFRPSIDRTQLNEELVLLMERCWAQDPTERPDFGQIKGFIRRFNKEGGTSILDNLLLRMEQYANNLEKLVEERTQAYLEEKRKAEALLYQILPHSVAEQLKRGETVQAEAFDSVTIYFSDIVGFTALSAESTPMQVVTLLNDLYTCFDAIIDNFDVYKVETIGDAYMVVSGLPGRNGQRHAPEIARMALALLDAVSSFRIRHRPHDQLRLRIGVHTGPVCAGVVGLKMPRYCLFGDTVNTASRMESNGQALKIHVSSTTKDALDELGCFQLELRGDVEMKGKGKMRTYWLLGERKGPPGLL

[2] = target: guanylyl cyclase type C (GC-C) (Homo sapiens, UniProt P25092); assay: STa-induced activation of GC-C in T84 cells (cyclic GMP accumulation, ELISA); format: cell-based; set-up: endogenous in cells; host or cells: T84 cells
guanylyl cyclase type C (GC-C), sequence (P25092 24-1073): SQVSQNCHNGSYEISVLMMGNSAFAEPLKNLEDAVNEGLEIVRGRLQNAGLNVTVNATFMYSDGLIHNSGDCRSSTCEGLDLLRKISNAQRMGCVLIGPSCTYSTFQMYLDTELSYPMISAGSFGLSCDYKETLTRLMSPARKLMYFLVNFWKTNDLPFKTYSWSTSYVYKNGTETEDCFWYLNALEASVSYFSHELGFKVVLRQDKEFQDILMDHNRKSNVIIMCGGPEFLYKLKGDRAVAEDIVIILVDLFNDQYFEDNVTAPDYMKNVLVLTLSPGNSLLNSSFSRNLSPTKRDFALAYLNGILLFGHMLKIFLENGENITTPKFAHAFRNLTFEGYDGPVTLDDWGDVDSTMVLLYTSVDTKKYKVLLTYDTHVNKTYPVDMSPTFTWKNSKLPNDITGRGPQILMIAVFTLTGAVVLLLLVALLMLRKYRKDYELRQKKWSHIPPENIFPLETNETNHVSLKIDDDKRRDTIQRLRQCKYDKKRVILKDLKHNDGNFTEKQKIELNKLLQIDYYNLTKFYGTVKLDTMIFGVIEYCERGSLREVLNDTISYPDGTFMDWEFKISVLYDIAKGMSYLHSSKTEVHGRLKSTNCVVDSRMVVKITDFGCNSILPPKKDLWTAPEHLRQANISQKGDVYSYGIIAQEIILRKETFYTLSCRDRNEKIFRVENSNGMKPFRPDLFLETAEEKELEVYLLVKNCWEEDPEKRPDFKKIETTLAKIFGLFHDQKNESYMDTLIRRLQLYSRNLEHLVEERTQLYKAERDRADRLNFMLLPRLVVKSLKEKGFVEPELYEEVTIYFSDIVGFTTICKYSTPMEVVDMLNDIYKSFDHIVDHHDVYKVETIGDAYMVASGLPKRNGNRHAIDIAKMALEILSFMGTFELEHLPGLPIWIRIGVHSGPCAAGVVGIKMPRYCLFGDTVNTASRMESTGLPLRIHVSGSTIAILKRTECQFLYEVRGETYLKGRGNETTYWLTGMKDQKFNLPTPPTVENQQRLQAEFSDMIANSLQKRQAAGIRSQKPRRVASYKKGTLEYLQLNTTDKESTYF

[3] = target: pertussis adenylyl cyclase toxin (Bordetella pertussis, UniProt P0DKX7); assay: Cyclic AMP accumulation in T84 cells infected with pertussis adenylyl cyclase toxin; format: cell-based; settings: 50 μM compound
pertussis adenylyl cyclase toxin, sequence (P0DKX7 whole entry, looked up): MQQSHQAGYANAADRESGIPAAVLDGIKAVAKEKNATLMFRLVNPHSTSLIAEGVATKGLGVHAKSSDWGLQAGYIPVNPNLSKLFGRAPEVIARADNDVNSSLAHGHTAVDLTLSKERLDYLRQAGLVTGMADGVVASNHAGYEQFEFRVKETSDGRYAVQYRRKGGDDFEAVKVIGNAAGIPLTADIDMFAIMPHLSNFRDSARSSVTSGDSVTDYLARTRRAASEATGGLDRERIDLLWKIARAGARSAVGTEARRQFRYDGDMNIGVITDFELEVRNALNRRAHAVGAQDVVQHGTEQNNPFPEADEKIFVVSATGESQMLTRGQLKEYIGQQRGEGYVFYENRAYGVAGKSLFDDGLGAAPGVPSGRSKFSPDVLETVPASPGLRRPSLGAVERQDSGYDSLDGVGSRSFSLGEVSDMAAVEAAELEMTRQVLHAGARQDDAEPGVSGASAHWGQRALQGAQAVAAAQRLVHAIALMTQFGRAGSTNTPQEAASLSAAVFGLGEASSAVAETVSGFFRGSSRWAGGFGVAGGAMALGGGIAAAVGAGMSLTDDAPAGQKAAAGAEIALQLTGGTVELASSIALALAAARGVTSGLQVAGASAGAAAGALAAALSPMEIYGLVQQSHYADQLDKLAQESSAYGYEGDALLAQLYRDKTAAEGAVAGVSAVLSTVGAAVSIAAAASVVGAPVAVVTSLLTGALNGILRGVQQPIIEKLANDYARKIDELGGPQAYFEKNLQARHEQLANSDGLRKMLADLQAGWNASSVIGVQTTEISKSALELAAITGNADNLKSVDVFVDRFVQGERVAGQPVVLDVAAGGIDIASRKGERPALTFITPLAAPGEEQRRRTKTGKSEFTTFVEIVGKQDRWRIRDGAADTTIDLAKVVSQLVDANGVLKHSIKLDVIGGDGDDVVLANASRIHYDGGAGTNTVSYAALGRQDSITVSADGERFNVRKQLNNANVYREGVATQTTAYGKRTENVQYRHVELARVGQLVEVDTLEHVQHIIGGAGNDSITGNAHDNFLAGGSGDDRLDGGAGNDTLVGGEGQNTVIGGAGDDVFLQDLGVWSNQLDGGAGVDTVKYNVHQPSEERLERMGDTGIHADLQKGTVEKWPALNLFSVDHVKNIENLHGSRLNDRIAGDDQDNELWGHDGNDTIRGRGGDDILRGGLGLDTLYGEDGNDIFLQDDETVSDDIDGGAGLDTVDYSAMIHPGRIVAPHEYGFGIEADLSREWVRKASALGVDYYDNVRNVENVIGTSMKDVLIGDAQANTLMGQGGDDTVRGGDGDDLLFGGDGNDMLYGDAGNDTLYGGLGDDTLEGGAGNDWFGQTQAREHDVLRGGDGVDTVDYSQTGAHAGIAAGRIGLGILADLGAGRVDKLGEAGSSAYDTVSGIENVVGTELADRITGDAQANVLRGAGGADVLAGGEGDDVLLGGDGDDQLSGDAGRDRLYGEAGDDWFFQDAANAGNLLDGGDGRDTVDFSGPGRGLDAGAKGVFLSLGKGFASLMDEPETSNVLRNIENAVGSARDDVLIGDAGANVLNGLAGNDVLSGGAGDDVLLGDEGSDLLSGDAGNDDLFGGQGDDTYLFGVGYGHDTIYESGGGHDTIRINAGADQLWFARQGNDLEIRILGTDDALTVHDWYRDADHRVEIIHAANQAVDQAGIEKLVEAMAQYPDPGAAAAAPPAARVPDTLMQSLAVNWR
Method: The assay was performed in T84 cells by the methods described in Example 2 and Ahuja, N.; Kumar, P.; Bhatnagar, R., The adenylate cyclase toxins. Crit Rev Microbiol 2004, 30, (3), 187-96, but the amount of cyclic AMP accumulated was assayed with a commercially available kit from Cayman Chemical Co.
Cells were treated with pertussis adenylyl cyclase toxin at 1 μg/ml in Dulbecco's minimal essential medium for 60 min in the presence of vehicle DMSO (0.1%) or 50 μM compound IIb for 60 min and then medium was aspirated and replaced with DPBS containing 1 mM IBMX and DMSO or compound IIb, respectively, for the vehicle and compound IIb-treated samples. After 10 min incubation, the amount of cyclic AMP was measured. […] N=3.

[4] = target: T2, membrane guanylyl cyclase (guanylyl cyclase type A, GC-A) (Homo sapiens, UniProt P16066); assay: ANP-induced cyclic GMP accumulation in BE-2(C) neuroblastoma cells
T2 sequence (P16066 33-1061): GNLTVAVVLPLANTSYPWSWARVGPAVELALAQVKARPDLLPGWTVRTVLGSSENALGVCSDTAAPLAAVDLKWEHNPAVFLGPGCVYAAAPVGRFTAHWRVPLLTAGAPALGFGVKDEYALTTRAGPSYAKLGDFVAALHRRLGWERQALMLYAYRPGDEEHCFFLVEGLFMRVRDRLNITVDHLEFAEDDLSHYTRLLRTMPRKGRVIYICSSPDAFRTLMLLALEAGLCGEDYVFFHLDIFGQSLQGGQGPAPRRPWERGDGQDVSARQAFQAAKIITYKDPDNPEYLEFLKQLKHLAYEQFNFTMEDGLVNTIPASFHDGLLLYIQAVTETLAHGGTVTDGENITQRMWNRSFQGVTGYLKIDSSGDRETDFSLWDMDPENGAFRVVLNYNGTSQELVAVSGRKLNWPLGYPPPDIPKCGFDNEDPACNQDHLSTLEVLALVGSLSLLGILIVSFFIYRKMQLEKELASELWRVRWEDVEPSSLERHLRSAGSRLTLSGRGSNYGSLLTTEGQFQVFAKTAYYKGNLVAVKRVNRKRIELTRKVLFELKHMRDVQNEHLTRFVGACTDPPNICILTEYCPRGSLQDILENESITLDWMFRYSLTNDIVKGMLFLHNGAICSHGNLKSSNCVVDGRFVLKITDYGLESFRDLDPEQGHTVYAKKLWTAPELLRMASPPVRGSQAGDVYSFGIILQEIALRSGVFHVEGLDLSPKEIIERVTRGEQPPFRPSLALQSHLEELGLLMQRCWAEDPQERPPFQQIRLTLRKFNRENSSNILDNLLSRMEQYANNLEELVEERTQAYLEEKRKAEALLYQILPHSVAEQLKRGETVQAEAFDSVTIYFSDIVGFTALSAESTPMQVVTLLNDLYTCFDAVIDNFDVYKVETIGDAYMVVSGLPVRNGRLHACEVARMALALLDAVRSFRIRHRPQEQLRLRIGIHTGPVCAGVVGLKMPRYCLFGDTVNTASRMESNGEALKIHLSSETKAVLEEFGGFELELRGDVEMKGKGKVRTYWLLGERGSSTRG

Cn1c2c(c(=O)n(C)c1=O)C(c1cccc(Br)c1)C1=C(N2)c2ccccc2C1=O (stereo not drawn) [compound IIb]
inhibition of cyclic GMP accumulation (FIG. 6) [1]: inhibition
inhibition of STa-induced activation of GC-C (FIG. 2) [2]: inhibition
inhibition at 50 µM ([2]; 100 nM STa, 50 μM compound): 84.7%
level of cyclic GMP ([2]; 100 nM STa, 50 μM compound, vehicle 124±10, basal 6±2): 24±6 pmol/mg protein
IC50 ([2]; 100 nM STa, read-out: IC50, inhibition of cyclic GMP synthesis): 3.4 µM
STa concentration-dependent accumulation of cyclic GMP ([2]; increasing STa 1 nM to 5 μM, 50 μM compound): significantly suppressed
cyclic AMP accumulation ([3]; toxin 1 μg/ml 60 min, vehicle 9.97±0.72): 4.06±0.44 nmol/mg protein
decrease of cyclic AMP accumulation ([3]; toxin 1 μg/ml): 59.2%
IC50 [4]: 8.4 µM
